Reference: publication PMC11576293, “New series of 4,6-diaryl pyrimidines: facile synthesis and antiproliferative activity as dual EGFR/VEGFR-2 inhibitors” (Frontiers in Chemistry, 2024)
pIC50: −log10 of the molar value.

Experiments:
Format in all cases: cell-based
[1] = tested on: four cancer cell lines (A-549, MCF-7, Panc-1, HT-29); assay: Antiproliferative assay, average over four cancer cell lines; conditions: Homo sapiens; average of the four cancer cell lines; read-out: Average IC50 (GI50)
From the text: Table 2 presents the four cancer cell lines’ median inhibitory concentration (IC50) and GI50 (average IC50) values.
The IC50 values were derived from dose-response tests. The reported data are derived from at least two independent studies, each comprising three replicates per concentration. See Supplementary Material A1 for more details.

HCT-116 = assay: NCI-60 single-dose screen; conditions: Homo sapiens, single dose 10 µM, '-' = no inhibition, read-out: % Growth Inhibition
Description: (§1) The National Cancer Institute’s Developmental Therapeutic Program (www.dtp.nci.nih.gov) has tested compounds 9–29 (except compounds 21 and 22) against 60 cancer cell lines from nine types (leukemia, lung, colon, CNS, melanoma, ovarian, renal, prostate, and breast cancer) at a single dose (10 μM) ([El-Sherief et al., 2018]). […] The most sensitive cells included leukemia (SR, K-562, and MOLT-4), lung (NCI-H522, […], and EKVX), breast (MCF-7 and T-47D), colon (HCT-15 and HT-29), and ovarian (NCI/ADR-RES).
(§2) The National Cancer Institute’s Developmental Therapeutic Program (www.dtp.nci.nih.gov) evaluated compounds 9–29 (excluding 21 and 22) against 60 cancer cell lines from nine categories (leukemia, lung, colon, CNS, melanoma, ovarian, renal, prostate, and breast cancer) at a single dose (10 μM) ([El-Sherief et al., 2018]). See Supplementary Material A1 for more details.

MDA-MB-468 = assay: NCI-60 single-dose screen; conditions: Homo sapiens, single dose 10 µM, '-' = no inhibition, read-out: % Growth Inhibition
Description: as §1, §2

786-0 = assay: NCI-60 single-dose screen; conditions: Homo sapiens, single dose 10 µM, '-' = no inhibition, read-out: % Growth Inhibition
Description: as §1, §2

OVCAR-3 = assay: NCI-60 single-dose screen; conditions: Homo sapiens, single dose 10 µM, '-' = no inhibition, read-out: % Growth Inhibition
Description: as §1, §2

TK-10 = assay: NCI-60 single-dose screen; conditions: Homo sapiens, single dose 10 µM, '-' = no inhibition, read-out: % Growth Inhibition
Description: as §1, §2

OVCAR-8 = assay: NCI-60 single-dose screen; conditions: Homo sapiens, single dose 10 µM, '-' = no inhibition, read-out: % Growth Inhibition
Description: as §1, §2

SF-268 = assay: NCI-60 single-dose screen; conditions: Homo sapiens, single dose 10 µM, '-' = no inhibition, read-out: % Growth Inhibition
Description: as §1, §2

OVCAR-5 = assay: NCI-60 single-dose screen; conditions: Homo sapiens, single dose 10 µM, '-' = no inhibition, read-out: % Growth Inhibition
Description: as §1, §2

HL-60(TB) = assay: NCI-60 single-dose screen; conditions: Homo sapiens, single dose 10 µM, '-' = no inhibition, read-out: % Growth Inhibition
Description: as §1, §2

ACHN 1 = assay: NCI-60 single-dose screen; conditions: Homo sapiens, single dose 10 µM, '-' = no inhibition, read-out: % Growth Inhibition
Description: as §1, §2

SR = assay: NCI-60 single-dose screen; conditions: Homo sapiens, single dose 10 µM, '-' = no inhibition, read-out: % Growth Inhibition
Description: as §1, §2

MDA-MB231/ATCC = assay: NCI-60 single-dose screen; conditions: Homo sapiens, MDA-MB-231, single dose 10 µM, '-' = no inhibition, read-out: % Growth Inhibition
Description: as §1, §2

U251 = assay: NCI-60 single-dose screen; conditions: Homo sapiens, U-251, single dose 10 µM, '-' = no inhibition, read-out: % Growth Inhibition
Description: as §1, §2

A549/ATCC = assay: NCI-60 single-dose screen; conditions: Homo sapiens, single dose 10 µM, '-' = no inhibition, read-out: % Growth Inhibition
Description: as §1, §2

NCI-H460 = assay: NCI-60 single-dose screen; conditions: Homo sapiens, single dose 10 µM, '-' = no inhibition, read-out: % Growth Inhibition
Description: as §1, §2

HOP-92 = assay: NCI-60 single-dose screen; conditions: Homo sapiens, single dose 10 µM, '-' = no inhibition, read-out: % Growth Inhibition
Description: as §1, §2

IGROV1 = assay: NCI-60 single-dose screen; conditions: Homo sapiens, IGROV-1, single dose 10 µM, '-' = no inhibition, read-out: % Growth Inhibition
Description: as §1, §2

NCI-H322M = assay: NCI-60 single-dose screen; conditions: Homo sapiens, single dose 10 µM, '-' = no inhibition, read-out: % Growth Inhibition
Description: as §1, §2

NCI-H522 = assay: NCI-60 single-dose screen; conditions: Homo sapiens, single dose 10 µM, '-' = no inhibition, read-out: % Growth Inhibition
Description: as §1, §2

PC-3 = assay: NCI-60 single-dose screen; conditions: Homo sapiens, single dose 10 µM, '-' = no inhibition, read-out: % Growth Inhibition
Description: as §1, §2

SK-MEL-5 = assay: NCI-60 single-dose screen; conditions: Homo sapiens, single dose 10 µM, '-' = no inhibition, read-out: % Growth Inhibition
Description: as §1, §2

HT29 = assay: NCI-60 single-dose screen; conditions: Homo sapiens, HT-29, single dose 10 µM, '-' = no inhibition, read-out: % Growth Inhibition
Description: as §1, §2

SK-MEL-28 = assay: NCI-60 single-dose screen; conditions: Homo sapiens, single dose 10 µM, '-' = no inhibition, read-out: % Growth Inhibition
Description: as §1, §2

UACC-257 = assay: NCI-60 single-dose screen; conditions: Homo sapiens, single dose 10 µM, '-' = no inhibition, read-out: % Growth Inhibition
Description: as §1, §2

NCI/ADR-RES = assay: NCI-60 single-dose screen; conditions: Homo sapiens, single dose 10 µM, '-' = no inhibition, read-out: % Growth Inhibition
Description: as §1, §2

OVCAR-4 = assay: NCI-60 single-dose screen; conditions: Homo sapiens, single dose 10 µM, '-' = no inhibition, read-out: % Growth Inhibition
Description: as §1, §2

SN12C = assay: NCI-60 single-dose screen; conditions: Homo sapiens, single dose 10 µM, '-' = no inhibition, read-out: % Growth Inhibition
Description: as §1, §2

NCI-H23 = assay: NCI-60 single-dose screen; conditions: Homo sapiens, single dose 10 µM, '-' = no inhibition, read-out: % Growth Inhibition
Description: as §1, §2

UO-31 = assay: NCI-60 single-dose screen; conditions: Homo sapiens, single dose 10 µM, '-' = no inhibition, read-out: % Growth Inhibition
Description: as §1, §2

DU-145 = assay: NCI-60 single-dose screen; conditions: Homo sapiens, single dose 10 µM, '-' = no inhibition, read-out: % Growth Inhibition
Description: as §1, §2

SK-MEL-2 = assay: NCI-60 single-dose screen; conditions: Homo sapiens, single dose 10 µM, '-' = no inhibition, read-out: % Growth Inhibition
Description: as §1, §2

HS 578T = assay: NCI-60 single-dose screen; conditions: Homo sapiens, single dose 10 µM, '-' = no inhibition, read-out: % Growth Inhibition
Description: as §1, §2

BT-549 = assay: NCI-60 single-dose screen; conditions: Homo sapiens, single dose 10 µM, '-' = no inhibition, read-out: % Growth Inhibition
Description: as §1, §2

SK-OV-3 = assay: NCI-60 single-dose screen; conditions: Homo sapiens, single dose 10 µM, '-' = no inhibition, read-out: % Growth Inhibition
Description: as §1, §2

SF-539 = assay: NCI-60 single-dose screen; conditions: Homo sapiens, single dose 10 µM, '-' = no inhibition, read-out: % Growth Inhibition
Description: as §1, §2

HCC-2998 = assay: NCI-60 single-dose screen; conditions: Homo sapiens, single dose 10 µM, '-' = no inhibition, read-out: % Growth Inhibition
Description: as §1, §2

K-562 = assay: NCI-60 single-dose screen; conditions: Homo sapiens, K562, single dose 10 µM, '-' = no inhibition, read-out: % Growth Inhibition
Description: as §1, §2

UACC-62 = assay: NCI-60 single-dose screen; conditions: Homo sapiens, single dose 10 µM, '-' = no inhibition, read-out: % Growth Inhibition
Description: as §1, §2

CAKI-1 = assay: NCI-60 single-dose screen; conditions: Homo sapiens, single dose 10 µM, '-' = no inhibition, read-out: % Growth Inhibition
Description: as §1, §2

RPMI-8226 = assay: NCI-60 single-dose screen; conditions: Homo sapiens, single dose 10 µM, '-' = no inhibition, read-out: % Growth Inhibition
Description: as §1, §2

RXF 393 = assay: NCI-60 single-dose screen; conditions: Homo sapiens, single dose 10 µM, '-' = no inhibition, read-out: % Growth Inhibition
Description: as §1, §2

COLO 205 = assay: NCI-60 single-dose screen; conditions: Homo sapiens, single dose 10 µM, '-' = no inhibition, read-out: % Growth Inhibition
Description: as §1, §2

SNB-19 = assay: NCI-60 single-dose screen; conditions: Homo sapiens, single dose 10 µM, '-' = no inhibition, read-out: % Growth Inhibition
Description: as §1, §2

In the case of `C=CCSc1nc(-c2ccc(OC)cc2)cc(-c2cccc(OC)c2)n1` [Compound 20, 2-(Allylthio)-6-(3-methoxyphenyl)-4-(4-methoxyphenyl)pyrimidine], the pIC50 [1] was 7.15, the inhibition at 10 µM (HCT-116) was 5.47% and the inhibition at 10 µM (MDA-MB-468) was 1.99%. The inhibition at 10 µM (786-0) was less than 0%, the inhibition at 10 µM (OVCAR-3) was less than 0% and the inhibition at 10 µM (TK-10) was less than 0%. The inhibition at 10 µM (OVCAR-8) was 0.92%, the inhibition at 10 µM (SF-268) was less than 0% and the inhibition at 10 µM (OVCAR-5) was less than 0%. It also gave an inhibition at 10 µM (HL-60(TB)) of 31.3%, an inhibition at 10 µM (ACHN 1) of less than 0% and an inhibition at 10 µM (SR) of 13%. For the same molecule, the inhibition at 10 µM (MDA-MB231/ATCC) was less than 0%, the inhibition at 10 µM (U251) was less than 0% and the inhibition at 10 µM (A549/ATCC) was 1.93%. The inhibition at 10 µM (NCI-H460) was less than 0%, the inhibition at 10 µM (HOP-92) was less than 0% and the inhibition at 10 µM (IGROV1) was less than 0%. For the same molecule, the inhibition at 10 µM (NCI-H322M) was less than 0%, the inhibition at 10 µM (NCI-H522) was 8.49% and the inhibition at 10 µM (PC-3) was less than 0%. For the same molecule, the inhibition at 10 µM (SK-MEL-5) was 1.41%, the inhibition at 10 µM (HT29) was 8.08% and the inhibition at 10 µM (SK-MEL-28) was less than 0%. For the same molecule, the inhibition at 10 µM (UACC-257) was less than 0%, the inhibition at 10 µM (NCI/ADR-RES) was less than 0% and the inhibition at 10 µM (OVCAR-4) was 5.65%. The inhibition at 10 µM (SN12C) was 6.16%, the inhibition at 10 µM (NCI-H23) was 1.43% and the inhibition at 10 µM (UO-31) was 13.2%. For the same molecule, the inhibition at 10 µM (DU-145) was less than 0%, the inhibition at 10 µM (SK-MEL-2) was less than 0% and the inhibition at 10 µM (HS 578T) was less than 0%. The inhibition at 10 µM (BT-549) was less than 0%, the inhibition at 10 µM (SK-OV-3) was less than 0% and the inhibition at 10 µM (SF-539) was less than 0%. It also gave an inhibition at 10 µM (HCC-2998) of 2.37%, an inhibition at 10 µM (K-562) of 11.8% and an inhibition at 10 µM (UACC-62) of 18.8%. It also gave an inhibition at 10 µM (CAKI-1) of 7.19%, an inhibition at 10 µM (RPMI-8226) of 4.53% and an inhibition at 10 µM (RXF 393) of less than 0%. For the same molecule, the inhibition at 10 µM (COLO 205) was less than 0% and the inhibition at 10 µM (SNB-19) was 5.77%.
